We go through 3 molecules from patent publication EP1675557B1, “COMPOSITION COMPRISING A SESQUITERPENE LACTONE” (Greenpharma, priority 2003, dated 2005).

In one data set the test system is cellules de type Jurkat. As to the kind of experiment: Apoptosis test on Jurkat cells, apoptosis induced by sodium arsenate, quantified by flow cytometry (propidium iodide). The data set is classed as cell-based, humaine. Particulars: apoptosis induced by 5 µM arséniate de sodium. As to the method: Les tests apoptotiques ont été réalisés sur des cellules de type Jurkat. La lignée cellulaire Jurkat (Clone E6-1, ATCC TIB 152), dérivée de cellule T humaine de leucémie aiguë, a été décrite dans la littérature (Weiss A. et al, Journal of Immunology, 1984, 133, 123). Les cellules ont été incubées dans un milieu de culture en présence 1 µL d'arséniate de sodium. La concentration finale en arséniate de sodium dans le milieu de culture est de 5 µM. Afin de tester l'inhibition de l'apoptose induite par l'arséniate de sodium, les cellules ont été cultivées soit en absence (témoin) soit en présence de vulgarine 2,6 µM ou d'un de ses dérivés.
L'apoptose a été quantifiée par cytometrie en flux. Les cellules sont rendues perméables et leurs noyaux sont teintés avec de l'iodure de propidium en présence de ribonucléase. Un minimum de 3000 cellules ont été analysées afin de quantifier l'apoptose cellulaire (Hotz M.A. et al, Cytometry, 1994, 15, 237).
In general terms: A flow cytometer gives signals particle by particle.

Data set [1] has as its system PBMCs (lymphocytes et monocytes) ou du sang total. Briefly: Cell viability test (XTT, mitochondrial dehydrogenase). The conditions noted are these: relative to control of activated cells.
Protocol: (§1) Les tests ont été réalisés sur des PBMCs (lymphocytes et monocytes) ou du sang total de donneurs sains humains. Tous les prélèvements ont été réalisés au Service d'Hépato-Gastroentérologie et d'Assistance Nutritive des Hôpitaux Universitaires de Strasbourg (Hôpital de Hautepierre), après approbation du protocole d'étude concernant les effets du célastrol par le CCPPRB n°1 d'Alsace.
(§2) Chez des volontaires sains, 20 ml de sang veineux périphérique sont prélevés le matin à jeun sur héparine. Le sang est ensuite dilué au demi dans de la solution saline équilibrée de Hank's dépourvue en Ca^2+ et en Mg^2+ (HBSS-CMF, Gibco BRL, Cergy, France) additionnée de 100 UI/ml de streptomycine (Biochrom KG, Berlin, Allemagne) et de 100 UI/ml de pénicilline (Biochrom KG). Les PBMCs (lymphocytes et monocytes) sont alors séparées par centrifugation sur Ficoll-Histopaque de densité 1,076 (Sigma, L'Isle d'Abeau-Chesnes, France) (30 min à 400 g) puis, après deux lavages dans du HBSS-CMF additionné d'antibiotiques (10 min à 250 g), resuspendues dans du milieu RPMI 1640 (Gibco BRL) additionné de 10 % (volume/volume) de sérum foetal de veau (SFV) inactivé à la chaleur (56°C, 30 min, Gibco BRL) et d'antibiotiques. Après comptage à la cellule de Malassez, les cellules sont incubées à raison de 2 x 10^5 cellules/puits de 1 ml dans des plaques de 24 puits (Corning Inc., New York, USA) à 37°C dans un incubateur humidifié (air 95 % - CO2 5 %), en présence ou en absence des molécules étudiées préparées dans du DMSO (diméthyl sulfoxyde, Sigma ; maximum : 1 % (v/v) par puit), avec ou sans activation par du lipopolysaccharide de Salmonella abortus equi (LPS, 5 µg/ml) (Sigma) et de la phytohémagglutinine (PHA, 1 µg/ml) (Sigma) ajoutés à T0. Après 24 heures d'incubation, les plaques sont centrifugées (15 min à 200 g), et les surnageants prélevés puis congelés à -80°C jusqu'au dosage.
(§3) La technique est basée sur le clivage par la déshydrogénase mitochondriale d'un sel de tétrazolium de couleur jaune en formazan de couleur orange. Les culots cellulaires (PBMCs et sang total) contenus dans les plaques de culture sont resuspendus dans du RPMI 1640 additionné d'hydroxide 2,3-bis-(2-méthoxy-4-nitro-5-sulfophényl)-5-[(phénylamino)carbonyl]-2H-tétrazolium (XTT, 1 mg/ml, Sigma), et de méthosulfate de phénazine (1,25 mM, Sigma), catalyseur de la réaction. Les plaques sont incubées 4 à 24 heures, puis lues en absorbance à 450 nm (filtre de référence : 620 nm). La viabilité cellulaire est estimée par rapport au témoin de cellules activées.
A short description of the next data set: in vitro. Particulars: human, pbmcs or whole blood.

Protocol for in vitro: as §1, §2, §3

As for 4-épivulgarine, in the data set on cellules de type Jurkat (2,6 µM), the “pourcentage d'inhibition de l'apoptose” value is recorded as roughly 100%. For the same molecule, the “Pourcentage de viabilité cellulaire” value stood at 105% in data set [1] (Concentration 0,01 µM, 0.01 µM); 103% in data set [1] (Concentration 0,1 µM, 0.1 µM); 99% in data set [1] (Concentration 1 µM); 103% in data set [1] (Concentration 10 µM); 100% in data set [1] (Concentration 30 µM).

A word on the viability: it is a read-out of living cells in per cent, often relative to untreated cells. `CC1C(=O)OC2C1CCC1(C)C(=O)CCC(C)(O)C21` (centres unmarked) [2,3-dihydrovulgarine]: in “in vitro”, the viability at 0.01 µM was determined as 110%, the viability at 0.1 µM was found to be 104%, the viability at 1 µM was 105% and the viability at 10 µM was 108%. In addition, the viability at 30 µM in the data set “in vitro” turned out to be 105%.

Usually inhibition stands for the drop in the measured response relative to a control, in per cent. Regarding `CC1C(=O)OC2C1CCC1(C)C(=O)C=CC(C)(O)C21` (centres unmarked) [Vulgarine, vulgarine], the inhibition at 2.6 µM in the data set with cellules de type Jurkat (Homo sapiens, 2,6 µM, read-out: pourcentage d'inhibition de l'apoptose) was roughly 100%. Also, in “in vitro”, the viability at 0.01 µM was found to be 112%, the viability at 0.1 µM came to 102%, the viability at 1 µM was 119% and the viability at 10 µM worked out at 104%. Besides, the viability at 30 µM in the data set “in vitro” is 102%.
